The source of these data is patent publication US20070135383A1, “Phospholipase inhibitors, including multi-valent phospholipase inhibitors, and use thereof, including as lumen-localized phospholipase inhibitors” (priority 2005, published 2007).

The nature of one data set: Stability at low pH. The data set is classed as physicochemical.
A further data set addresses human PLA2 IB enzyme (Homo sapiens, UniProt P04054). The settings on record: versus the human PLA2 IB enzyme; cited from earlier work.
For another data set, the target named is mouse PLA2 IB enzyme (Mus musculus, UniProt Q9Z0Y2). The note with it: versus the mouse PLA2 IB enzyme; cited from earlier work.
Data set [1] addresses T1, porcine group 1B PLA2 (pps PLA2) (Sus scrofa, UniProt P00592).
T1 construct: purchased
The data set can be described thus: Fluorimetric PPyrPM assay for group 1B PLA2 inhibition (Example 12). The data set is classed as biochemical. The note with it: porcine pancreas secreted PLA2; read-out: ILYPSA IC50 pps PLA2. The method, boiled down:
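Porcine group 1B PLA2 hydrolysis of 4.2 uM PPyrPM vesicle solution (pre-mixing concentration) in 50 mM Tris-HCl pH 8.0, 50 mM KCl, 1 mM CaCl2 with BSA; inhibitors in 8-point threefold series from 15 uM. After 3 min at 37 °C, fluorescence read at ex 342/em 395 nm; duplicate IC50 by four-parameter fit.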

Chain of mouse PLA2 IB enzyme (Q9Z0Y2 23-146): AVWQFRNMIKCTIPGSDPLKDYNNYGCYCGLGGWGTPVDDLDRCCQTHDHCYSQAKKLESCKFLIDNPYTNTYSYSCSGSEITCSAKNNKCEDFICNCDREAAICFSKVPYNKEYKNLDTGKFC
Chain of human PLA2 IB enzyme (P04054 23-148): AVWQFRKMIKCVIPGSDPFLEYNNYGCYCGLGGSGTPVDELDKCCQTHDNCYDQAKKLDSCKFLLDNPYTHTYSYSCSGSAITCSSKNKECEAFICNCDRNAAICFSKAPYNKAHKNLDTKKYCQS
T1 sequence (P00592 23-146): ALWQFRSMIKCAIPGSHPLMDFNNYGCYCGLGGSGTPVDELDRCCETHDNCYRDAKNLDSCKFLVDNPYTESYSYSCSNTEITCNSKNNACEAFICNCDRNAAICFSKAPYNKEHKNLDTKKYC

A word on the IC50: it is the point on the concentration scale where inhibition reaches its midpoint. `Cc1c(C(=O)C(N)=O)c2c(OCC(=O)O)cccc2n1Cc1ccccc1-c1ccccc1` [ILY-4001, 2-(3-(2-amino-2-oxoacetyl)-1-(biphenyl-2-ylmethyl)-2-methyl-1H-indol-4-yloxy)acetic acid]: the “stability at low pH” value in the data set “Stability at low pH” was “stable”. Besides, the IC50 on human PLA2 IB enzyme is about 200 nM; on mouse PLA2 IB enzyme it was 150 nM.
For `Cc1c(C(=O)C(N)=O)c2c(OCC(=O)O)cccc2n1CCCCCCCCSCCCCCCCCSCCCCCCCCn1c(C)c(C(=O)C(N)=O)c2c(OCC(=O)O)cccc21` [ILY-V-24, 2,2′-(1,1′-(8,8′-(Octane-1,8-diylbis(sulfanediyl))bis(octane-8,1-diyl))bis(3-(2-amino-2-oxoacetyl)-2-methyl-1H-indole-4,1-diyl))bis(oxy)diacetic acid], in data set [1], the IC50 came out at 800 nM.
